# Measured values as given in the supplement of paper PMC10307832.
# Compound: C1CN(CCN1)C2=CC=C(C=C2)C3=CN4C(=C(C=N4)C5=CC=NC6=CC=CC=C56)N=C3 [DM3189] + CC(=O)c1c(C)c2cnc(Nc3ccc(N4CCNCC4)cn3)nc2n(C2CCCC2)c1=O [Palbociclib] (partner 0.5 µM)
# Experiment: relative viability (nuclei count vs DMSO), 5 days (fraction); higher = more cells survive
# Outline: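 The day after seeding in 1536-well plates, lung cancer cell lines were treated by pin tool with a single drug, or with a fixed anchor-drug dose together with five library-drug doses (not always all listed) in √10 steps. After 5 days, a combined fix-and-stain solution (final 0.05% Triton X-100, 1% formaldehyde, 1 ug/ml Hoechst) was added. Nuclei counted on 4× images gave relative viability as treated counts over vehicle counts, reported as the median of duplicate plates.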
Cell Line,relative viability (first compound 0.08 µM),relative viability (first compound 0.253 µM),relative viability (first compound 0.8 µM),relative viability (first compound 2.53 µM)
HCC-366,0.408,0.286,0.244,0.341
HCC-44,0.898,0.976,0.798,0.951
NCI-H2023,0.38,0.396,0.4,0.336
NCI-H2347,0.412,0.4,0.417,0.435
NCI-H838,0.265,0.224,0.174,0.205
NCI-H1355,0.357,0.416,0.349,0.387
NCI-H1944,0.351,0.327,0.288,0.301
NCI-H2085,0.47,0.457,0.468,0.537
NCI-H1650,0.407,0.292,0.349,0.309
NCI-H1395,0.528,0.593,–,0.605
NCI-H2126,0.346,0.348,0.367,0.374
PC-14,0.591,0.458,0.465,0.449
NCI-H1793,0.414,0.432,0.448,0.451
LC-2-ad,0.561,0.507,0.487,0.49
HCC-78,0.479,0.395,0.423,0.586
NCI-H522,1.27,0.808,1.1,0.998
LOU-NH91,0.514,0.53,0.501,0.562
NCI-H1734,0.34,0.344,0.283,0.294

Cell Line,relative viability (first compound 0.08 µM),relative viability (first compound 0.253 µM),relative viability (first compound 0.8 µM),relative viability (first compound 2.53 µM)
NCI-H1993,0.779,0.809,0.571,0.736
NCI-H647,0.4,0.378,0.273,0.217
NCI-H1755,0.467,0.431,0.403,0.396
SW 1573,0.454,0.342,0.339,0.255
NCI-H650,0.321,0.311,0.304,0.369
UMC-11,0.371,0.333,0.313,0.323
HCC-15,0.832,0.721,0.675,0.844
NCI-H2228,1.09,0.75,0.472,0.307
NCI-H2087,0.212,0.197,0.224,0.238
SW 900,0.464,–,0.45,0.479
BEN,0.497,0.484,0.441,0.545
NCI-H661,0.411,0.394,0.396,0.381
LCLC-103H,0.536,0.434,0.45,0.455
PC-3 [JPC-3],0.574,0.48,0.553,0.543
NCI-H23,0.468,0.43,0.496,0.485
COR-L23,0.292,0.242,0.201,0.192
NCI-H1915,0.506,0.47,0.437,0.481
